Like-named read-outs stand apart in the source and are kept apart here.
Assay: logP determination by HPLC on a reversed-phase column (C 18), EEC Directive 79/831 Annex V.A8
Assay type: physicochemical
Description: The stated logP values were determined in accordance with EEC Directive 79/831 Annex V.A8 by HPLC (high performance liquid chromatography) on a reversed-phase column (C 18). Temperature: 43° C.

[1] = method marker [a] (footnote not shown), isomer A / isomer B / isomer mixture as noted in the cell
[2] = method marker [b], isomer A / isomer B / isomer mixture as noted in the cell
[3] = [a] acidic range, pH 2.3, 0.1% aqueous phosphoric acid and acetonitrile
[4] = reversed-phase HPLC column (C 18), HCO2H, HPLC reversed-phase column (C 18), 43° C., read-out: logP (HCO2H)

C=C(CON=C(C)c1cccc(-c2ccccc2)n1)CON=C(C)c1cccc(-c2ccccc2)n1 [compound 567]
logP (method marked [b] in Table 1): 7.26
logP (method marked [c] in Table 1): 7.27

CC(=NOCCCON=C(C)c1cccc(Cc2ccccc2)n1)c1cccc(Cc2ccccc2)n1 [Compound 131]
logP [1]: 6.95^[a]

CC(=NOCC1OC1CON=C(C)c1cccc(C)n1)c1cccc(C)n1 (racemic) [compound 286]
logP (value marked [b]): 2.08^[b]

CCc1cccc(C(C)=NOCC(C)CON=C(C)c2cccc(CC)n2)n1 (centres unmarked) [Compound 179]
logP [1]: 6.21^[a]

Cc1cccc(C(=NOCC(C)(C)CON=C(c2cccc(C)n2)C2CC2)C2CC2)n1 (mixture of isomers) [Compound 281]
logP (value marked [a]): 4.04^[a]

C=C(CON=C(C)c1cccc(C)n1)CON=C(C)c1cccs1 [compound 196]
logP [2]: 4.23^[b]

Cc1cc(C)nc(/C(N)=N/OCc2ccc(CO/N=C(\N)c3nc(C)cc(C)n3)cc2)n1 [compound 702]
logP (method marked [b] in Table 1): 2.11^[b]

CC(=NOCC(C)CON=C(C)c1cccc(CC(C)C)n1)c1cccc(CC(C)C)n1 (centres unmarked) [compound 172]
logP [1]: 7.36^[a]

CC(C)=CC1=NOC(CON=C(C)c2cc(C)cc(C)n2)(CON=C(C)c2cc(C)cc(C)n2)C1 (centres unmarked) [compound 647]
logP (method marked [b] in Table 1): 2.48^[b]

CCC(=NOCC1(CON=C(CC)c2cccc(C)n2)CC(c2ccccc2Cl)=NO1)c1cccc(C)n1 (centres unmarked) [compound 654]
logP (method marked [a] in Table 1): 5.69^[a]

C=C(CON=C(C)c1cccc(C(F)(F)F)n1)CON=C(C)c1cccc(C(F)(F)F)n1 [compound 176]
logP [2]: 6.02^[b]

C=C(CON=C(C)c1cccs1)CON=C(C)c1cccs1 (single isomer, unassigned) [compound 77]
logP [2]: 4.84^[b] (isomer B)

C/C(=N\OC[Si](C)(C)CO/N=C(\C)c1cccc(C)n1)c1cccc(C)n1 [(1E,1E′)-1-(6-methylpyridin-2-yl)ethanone O,O′-[(dimethylsilanediyl)bis(methylene)]oxime]
chromatographic logP (HCO2H, HPLC reversed-phase column (C 18), 43° C., read-out: logP (HCO2H)): 4.5

CC(=NOCC1(CON=C(C)c2cc(C)cc(C)n2)CC(c2ccccc2Cl)=NO1)c1cc(C)cc(C)n1 (centres unmarked) [compound 645]
logP (method marked [b] in Table 1): 3.19^[b]

CCC(=NOCCCCON=C(C)c1cccc(C)n1)c1ncccc1C (single isomer, unassigned) [compound 529]
logP (value marked [b]): 2.98^[b] (isomer )A

CC(=NOCC(C)(C)CON=C(CC(C)C)c1ncccc1C)c1cccc(C)n1 [compound 366]
logP (value marked [b]): 5.97^[b]

Cc1cccc(C(=NOCCCON)C(C)C)n1 [XII-1]
logP [3]: 1.12^[a]

CC(=NOCC(C)(C)CON=C(C)c1nc2ccccc2[nH]1)c1nc2ccccc2[nH]1 [Compound 573]
logP (method marked [a] in Table 1): 2.10^[a]

CC(=NOCCCCCCON=C(C)c1nc(C)c(C)s1)c1cccc(C)n1 (single isomer, unassigned) [compound 389]
logP (value marked [b]): 5.84^[b] (isomer A)

CCCC(=NOCCCCON=C(C)c1cccc(C)n1)c1cccc(C)n1 [compound 330]
logP (value marked [b]): 4.82^[b]

CC(=NOCCCCON=C(C)c1cccc(C)n1)c1ccccn1 [Compound 376]
logP (value marked [b]): 3.11^[b]

CC(=NOCC(C)(C)CON=C(C)c1ccc(C)c(C)n1)c1cc(C)cc(C)n1 [Compound 697]
logP (method marked [b] in Table 1): 3.15^[b]
logP (method marked [c] in Table 1): 6.70^[c]

CC(=NOCC(C)CON=C(C)c1cccc2ccccc12)c1cccc(C)n1 (centres unmarked) [compound 437]
logP (value marked [b]): 5.36^[b]

C=C(CON=C(C)c1csc(C)n1)CON=C(C)c1csc(C)n1 [compound 522]
logP (value marked [a]): 3.22^[a]
logP (value marked [b]): 3.22^[b]

C=C(CON=C(C)c1cccc(C)n1)CON=C(CC)c1cccc(C)n1 [compound 358]
logP (value marked [b]): 4.30^[b]

CCC(=NOCC(C)CON=C(C)c1cccc(C)n1)c1ncccc1C (centres unmarked) [compound 425]
logP (value marked [b]): 3.99^[b]

CC(=NOCCON=C(C)c1cccc(C)n1)c1cccc(C)n1 (mixture of isomers) [Compound 13]
logP [1]: 2.22^[a]

CCC(=NOCC(C)CON=C(CC)c1cccc(C)n1)c1cccc(C)n1 (centres unmarked) [Compound 116]
logP [1]: 5.40^[a]

CCSC(=NOCC(C)CON=C(SCC)c1cccc(C)n1)c1cccc(C)n1 (centres unmarked) [Compound 820]
logP (value marked [a]): 4.35^[a]

C/C(=N\OCC1(CON)CC1)c1ccc(C)c(C)n1 [XII-8, (1E)-1-(5,6-dimethylpyridin-2-yl)ethanone O-({1-[(aminooxy)methyl]-cyclopropyl}methyl)oxime]
chromatographic logP [4]: 0.73
chromatographic logP (reversed-phase HPLC column (C 18), [a] acidic range, pH 2.3, 0.1% aqueous phosphoric acid and acetonitrile, read-out: logP): 0.53
chromatographic logP (reversed-phase HPLC column (C 18), [b] LC-MS, acidic range, pH 2.7, 0.1% aqueous formic acid and acetonitrile, read-out: logP): 0.53
chromatographic logP (reversed-phase HPLC column (C 18), [c] LC-MS, neutral range, pH 7.8, 0.001 molar aqueous ammonium bicarbonate solution and acetonitrile, read-out: logP): 2.44

C/C(=N\OCC1(CO/N=C(\C)c2ccc(C)c(C)n2)CC1)c1cc(C)cc(C)n1 [(1E)-1-(4,6-dimethylpyridin-2-yl)ethanone O-({1-[({[(1E)-1-(5,6-dimethylpyridin-2-yl)ethylidene]amino}oxy)methyl]cyclopropyl}methyl)oxime]
chromatographic logP [4]: 2.61

CCC(CON=C(C)c1nc(C)ccc1C)CON=C(C)c1nc(C)ccc1C (single isomer, unassigned) [compound 751]
logP (method marked [b] in Table 1): 3.19^[b]
logP (method marked [c] in Table 1): 5.54^[c]

CC(=NOCC(C)CON=C(C)c1cccnc1C)c1cccnc1C (mixture of isomers) [compound 234]
logP [1]: 1.22^[a]

CCC(CC)(C(=O)ON=C(C)c1cccc(C)n1)C(=O)ON=C(C)c1cccc(C)n1 [compound 745]
logP (method marked [b] in Table 1): 4.49^[b]

CCCC(=NOCC1(CON=C(CCC)c2cccc(C)n2)CC(CC)=NO1)c1cccc(C)n1 (centres unmarked) [compound 617]
logP (method marked [b] in Table 1): 5.08^[b]

C=C(CON=C(C)c1cc(C)ccn1)CON=C(C)c1cccc(C)n1 [compound 398]
logP (value marked [b]): 2.76^[b]

C/C(=N\OCC(CO/N=C(\C)c1cccc(C)n1)=NO)c1cccc(C)n1 [(2E,9E)-2,10-bis(6-methylpyridin-2-yl)-4,8-dioxa-3,9-diazaundeca-2,9-dien-6-one oxime]
chromatographic logP [4]: 1.91

CC(=NOCCCCCCCON=C(C)c1cccc(C)n1)c1cccc(C)n1 [Compound 217]
logP [2]: 5.37^[b]

CC(=NOCC(C)CON=C(C)c1csc(Cl)n1)c1csc(Cl)n1 (mixture of isomers) [compound 231]
logP [1]: 5.16^[a]

CC(=NOC/C=C\CON=C(C)c1ccccn1)c1ccccn1 [Compound 541]
logP (method marked [b] in Table 1): 3.04^[b]

CCC(=NOCC(C)CON=C(CC)c1cc(C)cc(C)n1)c1cc(C)cc(C)n1 (mixture of isomers) [Compound 572]
logP (method marked [a] in Table 1): 3.23^[a]

C=C(CON=C(C)c1cccc(C)n1)CON=C(C)c1ccc(Cl)s1 (single isomer, unassigned) [compound 473]
logP (value marked [b]): 4.91^[b] (isomer B)

CC(=NOCCCCON=C(C)c1cncc(C)n1)c1cccc(C)n1 [compound 453]
logP (value marked [b]): 1.88^[b]

COc1cc(C)nc(C(C)=NOCCCCON=C(C)c2cccc(C)n2)c1 [compound 449]
logP (value marked [b]): 3.11^[b]

C=C(CON=Cc1cccc(C)n1)CON=Cc1cccc(C)n1 (single isomer, unassigned) [compound 664]
logP (method marked [b] in Table 1): 2.13^[b] (isomer A)

CC(=NOCC1(CON=C(C)c2ccc(C)c(C)n2)CCCC1)c1ccc(C)c(C)n1 [Compound 588]
logP (method marked [b] in Table 1): 4.92^[b]
logP (method marked [c] in Table 1): 7.36^[c]

CCCC1=NOC(CON=C(CC)c2cccc(C)n2)(CON=C(CC)c2cccc(C)n2)C1 (centres unmarked) [compound 608]
logP (method marked [b] in Table 1): 4.72^[b]

CC(=NOCC(C)CON=C(C)c1cccc(C)n1)c1cncc(C)c1 (centres unmarked) [compound 431]
logP (value marked [b]): 2.37^[b]

CC(=NOCC(C)(C)CON=C(C)c1cccc(C)n1)c1ccccc1 [compound 419]
logP (value marked [b]): 5.42^[b]

C=C(CON=C(C)c1cccc(C)n1)CON=C(C)c1cccc(CC)n1 [compound 354]
logP (value marked [b]): 4.67^[b]

CCC1=NOC(CO/N=C(\C)c2cccc(C)n2)(CO/N=C(\C)c2cccc(C)n2)C1 [(1E,1′E)-1-(6-methylpyridin-2-yl)ethanone O,O′-[(3-ethyl-4,5-dihydroisoxazole-5,5-diyl)bis(methylene)]oxime]
chromatographic logP [4]: 2.68

CC(=NOCC(C)CON=C(C)c1ccc2c(n1)CCC2)c1ccc2c(n1)CCC2 (centres unmarked) [Compound 300]
logP (value marked [a]): 4.14^[a]

CCC(=NOCCCCON=C(CC)c1cccc(C)n1)c1cccc(C)n1 (mixture of isomers) [compound 223]
logP [1]: 4.86^[a]

CC(=NOCCCCCCON=C(C)c1cccc(C)n1)c1ccccn1 [compound 388]
logP (value marked [b]): 4.41^[b]

C/C(=N\OCC1(CON)CC1)c1cc(C)cc(C)n1 [XII-12]
logP [3]: 0.61^[a]
logP ([b] LC-MS, acidic range, pH 2.7, 0.1% aqueous formic acid and acetonitrile): 0.61^[b]
logP ([c] LC-MS, neutral range, pH 7.8, 0.001 molar aqueous ammonium bicarbonate solution and acetonitrile): 2.42^[c]

C=C(CON=C(C)c1ccc(Br)nc1)CON=C(C)c1cccc(C)n1 [compound 208]
logP [2]: 4.08^[b]

CC(=NOCCCON=C(C)c1ccc(C)c(C)n1)c1cccc(C)n1 [Compound 699]
logP (method marked [b] in Table 1): 2.53^[b]
logP (method marked [c] in Table 1): 5.33^[c]

CC(=NOCC(C)(C)CON=C(C)c1cccc(C2CC2)n1)c1cccc(C2CC2)n1 [compound 814]
logP (value marked [a]): 7.36^[a]

C=C(CON=C(C)c1cnccn1)CON=C(C)c1cccc(C)n1 [compound 514]
logP (value marked [b]): 2.98^[b]

C#CCOc1ccc(C(C)=NOCC(C)CON=C(C)c2ccc(OCC#C)c(C)n2)nc1C (centres unmarked) [Compound 867]
logP (value marked [b]): 5.33^[b]
logP (value marked [c]): 5.44^[c]

CC(=NOCCCCCCON=C(C)c1ccc(Cl)s1)c1cccc(C)n1 [compound 459]
logP (value marked [b]): 6.16^[b]

CC(=NOCC(C)CON=C(C)c1cccc(C)n1)c1cnccn1 (centres unmarked) [compound 507]
logP (value marked [b]): 3.28^[b]

CC[Si](C)(CON=C(C)c1cccc(C)n1)CON=C(C)c1cccc(C)n1 [Compound 785]
logP (value marked [a]): 5.98^[a]
logP (value marked [b]): 5.98^[b]
logP (value marked [c]): 6.52^[c]
